Measurements published in US10689377B2 (Mirati Therapeutics, Inc., priority 2017, dated 2020).
pIC50: −log10 of the molar value.

Molecular target: KRas G12C (Homo sapiens, UniProt P01116, G12C)
Experiment: Cellular inhibition of KRas G12C measured by Phospho-ERK in NCI-H358 cells
Format: cell-based
Settings: pERK(Thr202/Tyr204) normalized with GAPDH, NCI-H358 cells, 3 hours; read-out: IC50
Protocol: Cells were plated in poly-D-Lysine coated 96-well plates at a concentration of 50,000 cells/well and allowed to attach for 8-12 hours. Diluted compounds were then added at a final concentration of 0.5% DMSO. After 3 hours, the medium was removed, 150 μL of 4% formaldehyde was added and the plates were incubated for 20 minutes. The plates were washed with PBS, and permeabilized using 150 μL of ice cold 100% methanol for 10 minutes. Non-specific antibody binding to the plates was blocked using 100 μL Licor Blocking Buffer (Li-Cor Biotechnology, Lincoln Nebr.) for 1 hour at room temperature. Positive control samples and samples lacking cells were parallel processed with test samples as standards.
The amount Phospho-ERK was determined using an antibody specific for the phosphorylated form of ERK and compared to the amount of GAPDH. […] The plates were incubated for 2 hours at room temperature. The plates were washed with PBS+0.05% Tween 20.
Secondary antibodies used to visualize primary antibodies were added as follows: Anti-rabbit-680 diluted 1:1000 and Anti-mouse-800 diluted 1:1000 in Licor Block+0.05% Tween 20 and incubated for 1 hour at room temperature. The plates were washed with PBS+0.05% Tween 20. A 100 μL aliquot of PBS was added to each well and the plates were read on a LICOR AERIUS plate reader.
The pERK(Thr202/Tyr204) signal was normalized with the GAPDH signal and percent of DMSO control values were calculated. IC50 values were generated using a 4 parameter fit of the dose response curve. Key: “A”≥0.0001-≤1 μM; “B”>1 μM and ND=not determined.

Sequence of KRas G12C (P01116 1-188 isoform P01116-2 G12C): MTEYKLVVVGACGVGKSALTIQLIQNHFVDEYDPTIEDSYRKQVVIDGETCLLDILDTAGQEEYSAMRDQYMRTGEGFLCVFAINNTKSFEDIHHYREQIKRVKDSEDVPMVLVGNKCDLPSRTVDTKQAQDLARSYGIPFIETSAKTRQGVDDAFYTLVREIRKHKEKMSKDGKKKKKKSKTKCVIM

Question: How did the pIC50 turn out when C=CC(=O)N1CCN(c2nc(OC[C@@H]3CCCC(=O)N3)nc3c2CCN(c2cc(O)cc4ccccc24)C3)CC1 (single isomer, unassigned) [Example 61] was run?
Answer: Its pIC50 is less than 6.00.

Question: C=CC(=O)N1CCN(c2nc(OC[C@H]3CCCC(=O)N3)nc3c2CCN(c2cc(O)cc4ccccc24)C3)CC1 (single isomer, unassigned) [Example 62] was tested. Which pIC50 did it give?
Answer: The pIC50 was less than 6.00.

Question: C=CC(=O)N1CCN(c2nc(OC[C@H](O)CN3CCOCC3)nc3c2CCN(c2cc(O)cc4ccccc24)C3)CC1 (single isomer, unassigned) [Example 215] was tested. Which pIC50 did it give?
Answer: Its pIC50 is less than 6.00.

Question: C=CC(=O)N1CCN(c2nc(OC[C@@H](O)CN3CCOCC3)nc3c2CCN(c2cc(O)cc4ccccc24)C3)CC1 (single isomer, unassigned) [Example 216] was tested. Which pIC50 did it give?
Answer: The pIC50 was less than 6.00.

Question: With C=CC(=O)N1CCN(c2ncnc3c2CCN(c2cc(O)cc4ccccc24)C3)CC1 [Example 1, 1-(4-(7-(3-hydroxynaphthalen-1-yl)-5,6,7,8-tetrahydropyrido[3,4-d]pyrimidin-4-yl)piperazin-1-yl)prop-2-en-1-one] as the molecule, how does the pIC50 read?
Answer: Its pIC50 is less than 6.00.

Question: How did the pIC50 turn out when C=CC(=O)N1CCN(c2ncnc3c2CCN(c2cccc4ccccc24)C3)CC1 [Example 3, 1-(4-(7-(naphthalen-1-yl)-5,6,7,8-tetrahydropyrido[3,4-d]pyrimidin-4-yl)piperazin-1-yl)prop-2-en-1-one] was run?
Answer: The pIC50 was less than 6.00.

Question: With C=CC(=O)N1CCN(c2ncnc3c2CCN(c2c(O)cccc2F)C3)CC1 [Example 4, 1-(4-(7-(2-fluoro-6-hydroxyphenyl)-5,6,7,8-tetrahydropyrido[3,4-d]pyrimidin-4-yl)piperazin-1-yl)prop-2-en-1-one] as the molecule, how does the pIC50 read?
Answer: Its pIC50 is less than 6.00.

Question: How did the pIC50 turn out when C=CC(=O)N1CCN(c2ncnc3c2CCN(c2cc(O)ccc2F)C3)CC1 [Example 5, 1-(4-(7-(2-fluoro-5-hydroxyphenyl)-5,6,7,8-tetrahydropyrido[3,4-d]pyrimidin-4-yl)piperazin-1-yl)prop-2-en-1-one] was run?
Answer: Its pIC50 is less than 6.00.

Question: C=CC(=O)N1CCN(c2ncnc3c2CC(C)N(c2cc(O)cc4ccccc24)C3)CC1 (stereo not shown) [Example 6, 1-(4-(7-(3-hydroxynaphthalen-1-yl)-6-methyl-5,6,7,8-tetrahydropyrido[3,4-d]pyrimidin-4-yl)piperazin-1-yl)prop-2-en-1-one] was tested. Which pIC50 did it give?
Answer: Its pIC50 is less than 6.00.

Question: C=CC(=O)N1CCN(c2ncnc3c2CCN(c2c(C)ccc4[nH]ncc24)C3)CC1 [Example 7, 1-(4-(7-(5-methyl-1H-indazol-4-yl)-5,6,7,8-tetrahydropyrido[3,4-d]pyrimidin-4-yl)piperazin-1-yl)prop-2-en-1-one] was tested. Which pIC50 did it give?
Answer: Its pIC50 is less than 6.00.

Question: How did the pIC50 turn out when C=CC(=O)N1CCN(c2nc(O[C@@H](C)CN(C)C)nc3c2CCN(c2cc(O)cc4ccccc24)C3)CC1 [Example 8, (S)-1-(4-(2-((1-(dimethylamino)propan-2-yl)oxy)-7-(3-hydroxynaphthalen-1-yl)-5,6,7,8-tetrahydropyrido[3,4-d]pyrimidin-4-yl)piperazin-1-yl)prop-2-en-1-one] was run?
Answer: The pIC50 was less than 6.00.

Question: How did the pIC50 turn out when C=CC(=O)N1CCN(c2nc(OCCN(C)C)nc3c2CCN(c2cc(O)cc4ccccc24)C3)CC1 [Example 9, 1-(4-(2-(2-(dimethylamino)ethoxy)-7-(3-hydroxynaphthalen-1-yl)-5,6,7,8-tetrahydropyrido[3,4-d]pyrimidin-4-yl)piperazin-1-yl)prop-2-en-1-one] was run?
Answer: The pIC50 was less than 6.00.

Question: How did the pIC50 turn out when C=CC(=O)N1CCN(c2nc(OCCCN(C)C)nc3c2CCN(c2cc(O)cc4ccccc24)C3)CC1 [Example 10, 1-(4-(2-(3-(dimethylamino)propoxy)-7-(3-hydroxynaphthalen-1-yl)-5,6,7,8-tetrahydropyrido[3,4-d]pyrimidin-4-yl)piperazin-1-yl)prop-2-en-1-one] was run?
Answer: The pIC50 was less than 6.00.

Question: How did the pIC50 turn out when C=CC(=O)N1CCN(c2nc(OC(C)CN(C)C)nc3c2CCN(c2cc(O)cc4ccccc24)C3)CC1 (stereo not shown) [Example 11, 1-(4-(2-((1-(dimethylamino)propan-2-yl)oxy)-7-(3-hydroxynaphthalen-1-yl)-5,6,7,8-tetrahydropyrido[3,4-d]pyrimidin-4-yl)piperazin-1-yl)prop-2-en-1-one] was run?
Answer: Its pIC50 is 6.00 to 10.00.

Question: C=CC(=O)N1CCN(c2nc(N3CCN(C)CC3)nc3c2CCN(c2cc(O)cc4ccccc24)C3)CC1 [Example 12, 1-(4-(7-(3-hydroxynaphthalen-1-yl)-2-(4-methylpiperazin-1-yl)-5,6,7,8-tetrahydropyrido[3,4-d]pyrimidin-4-yl)piperazin-1-yl)prop-2-en-1-one] was tested. Which pIC50 did it give?
Answer: The pIC50 was less than 6.00.

Question: C=CC(=O)N1CCN(c2nc(N3CCC(N(C)C)C3)nc3c2CCN(c2cc(O)cc4ccccc24)C3)CC1 (stereo not shown) [Example 13, 1-(4-(2-(3-(dimethylamino)pyrrolidin-1-yl)-7-(3-hydroxynaphthalen-1-yl)-5,6,7,8-tetrahydropyrido[3,4-d]pyrimidin-4-yl)piperazin-1-yl)prop-2-en-1-one] was tested. Which pIC50 did it give?
Answer: The pIC50 was less than 6.00.

Question: With C=CC(=O)N1CCN(c2nc(OCCN(C)C)nc3c2CCN(c2cc(O)cc4ccccc24)C3)C[C@@H]1C [Example 14] as the molecule, how does the pIC50 read?
Answer: The pIC50 was less than 6.00.

Question: How did the pIC50 turn out when C=CC(=O)N1CCN(c2nc(OCCN(C)C)nc3c2CCN(c2cc(O)cc4ccccc24)C3)C[C@H]1C [Example 15, (R)-1-(4-(2-(2-(dimethylamino)ethoxy)-7-(3-hydroxynaphthalen-1-yl)-5,6,7,8-tetrahydropyrido[3,4-d]pyrimidin-4-yl)-2-methylpiperazin-1-yl)prop-2-en-1-one] was run?
Answer: Its pIC50 is less than 6.00.

Question: C=CC(=O)N1CC2(C1)CN(c1nc(OCCN(C)C)nc3c1CCN(c1cc(O)cc4ccccc14)C3)C2 [Example 16, 1-(6-(2-(2-(dimethylamino)ethoxy)-7-(3-hydroxynaphthalen-1-yl)-5,6,7,8-tetrahydropyrido[3,4-d]pyrimidin-4-yl)-2,6-diazaspiro[3.3]heptan-2-yl)prop-2-en-1-one] was tested. Which pIC50 did it give?
Answer: Its pIC50 is less than 6.00.

Question: How did the pIC50 turn out when C=CC(=O)N1CCN(c2nc(N3CCC(N(C)C)CC3)nc3c2CCN(c2cc(O)cc4ccccc24)C3)CC1 [Example 17, 1-(4-(2-(4-(dimethylamino)piperidin-1-yl)-7-(3-hydroxynaphthalen-1-yl)-5,6,7,8-tetrahydropyrido[3,4-d]pyrimidin-4-yl)piperazin-1-yl)prop-2-en-1-one] was run?
Answer: The pIC50 was less than 6.00.

Question: How did the pIC50 turn out when C=CC(=O)N1CC2(C1)CN(c1nc(OC(C)CN(C)C)nc3c1CCN(c1cc(O)cc4ccccc14)C3)C2 (stereo not shown) [Example 18, 1-(6-(2-((1-(dimethylamino)propan-2-yl)oxy)-7-(3-hydroxynaphthalen-1-yl)-5,6,7,8-tetrahydropyrido[3,4-d]pyrimidin-4-yl)-2,6-diazaspiro[3.3]heptan-2-yl)prop-2-en-1-one] was run?
Answer: The pIC50 was less than 6.00.

Question: C=CC(=O)N1CCN(c2nc(O[C@H](C)CN(C)C)nc3c2CCN(c2cc(O)cc4ccccc24)C3)CC1 [Example 19, (R)-1-(4-(2-((1-(dimethylamino)propan-2-yl)oxy)-7-(3-hydroxynaphthalen-1-yl)-5,6,7,8-tetrahydropyrido[3,4-d]pyrimidin-4-yl)piperazin-1-yl)prop-2-en-1-one] was tested. Which pIC50 did it give?
Answer: Its pIC50 is 6.00 to 10.00.

Question: How did the pIC50 turn out when C=CC(=O)N1CC2(C1)CN(c1nc(OCCCN(C)C)nc3c1CCN(c1cc(O)cc4ccccc14)C3)C2 [Example 20, 1-(6-(2-(3-(dimethylamino)propoxy)-7-(3-hydroxynaphthalen-1-yl)-5,6,7,8-tetrahydropyrido[3,4-d]pyrimidin-4-yl)-2,6-diazaspiro[3.3]heptan-2-yl)prop-2-en-1-one] was run?
Answer: The pIC50 was less than 6.00.

Question: How did the pIC50 turn out when C=CC(=O)N1CCN(c2nc(OC(C)CCN(C)C)nc3c2CCN(c2cc(O)cc4ccccc24)C3)CC1 (stereo not shown) [Example 21, 1-(4-(2-((4-(dimethylamino)butan-2-yl)oxy)-7-(3-hydroxynaphthalen-1-yl)-5,6,7,8-tetrahydropyrido[3,4-d]pyrimidin-4-yl)piperazin-1-yl)prop-2-en-1-one] was run?
Answer: Its pIC50 is 6.00 to 10.00.

Question: C=CC(=O)N1CCN(c2nc(OC3CCN(C)CC3)nc3c2CCN(c2cc(O)cc4ccccc24)C3)CC1 [Example 22, 1-(4-(7-(3-hydroxynaphthalen-1-yl)-2-((1-methylpiperidin-4-yl)oxy)-5,6,7,8-tetrahydropyrido[3,4-d]pyrimidin-4-yl)piperazin-1-yl)prop-2-en-1-one] was tested. Which pIC50 did it give?
Answer: The pIC50 was less than 6.00.

Question: C=CC(=O)N1CCN(c2nc(OC3CCN(C)C3)nc3c2CCN(c2cc(O)cc4ccccc24)C3)CC1 (stereo not shown) [Example 23, 1-(4-(7-(3-hydroxynaphthalen-1-yl)-2-((1-methylpyrrolidin-3-yl)oxy)-5,6,7,8-tetrahydropyrido[3,4-d]pyrimidin-4-yl)piperazin-1-yl)prop-2-en-1-one] was tested. Which pIC50 did it give?
Answer: Its pIC50 is less than 6.00.

Question: How did the pIC50 turn out when C=CC(=O)N1CCN(c2nc(OC(C)CN(C)C)nc3c2CCN(c2cccc4ccccc24)C3)CC1 (stereo not shown) [Example 24, 1-(4-(2-((1-(dimethylamino)propan-2-yl)oxy)-7-(naphthalen-1-yl)-5,6,7,8-tetrahydropyrido[3,4-d]pyrimidin-4-yl)piperazin-1-yl)prop-2-en-1-one] was run?
Answer: Its pIC50 is less than 6.00.

Question: With C=CC(=O)N1CCN(c2nc(OCCCN(C)C)nc3c2CCN(C(C)c2ccccc2)C3)CC1 (stereo not shown) [Example 25, 1-(4-(2-(3-(dimethylamino)propoxy)-7-(1-phenylethyl)-5,6,7,8-tetrahydropyrido[3,4-d]pyrimidin-4-yl)piperazin-1-yl)prop-2-en-1-one] as the molecule, how does the pIC50 read?
Answer: Its pIC50 is less than 6.00.
